In patent US20110002820A1, “EXTERIOR SURFACE TREATMENT SYSTEM” (priority 2008, published 2011):

What was measured:
Format in all cases: cell-based
Stiegeocionim sp. = assay: Algistatic concentration against algae
Aspergillus niger = assay: Fungicidal activity, minimum inhibitory concentration against fungi
Myrothecium verrucaria = assay: as above
Trichoderma viridae = assay: as above
Oscillatoria tenius = assay: Algistatic concentration against algae
Anabaena cylindrica = assay: Algistatic concentration against algae
Chlorella vulgaris = assay: Algistatic concentration against algae
Chaetomium globosum = assay: Fungicidal activity, minimum inhibitory concentration against fungi

CCCCCCCCCC[N+](C)(C)CCCCCCCCCC.[Cl-] [DDAC, didecyl dimethyl ammonium chloride]
Algistatic concentration (Stiegeocionim sp.): 0.7 ppm | MIC (Aspergillus niger): 75 µg/mL | MIC (Myrothecium verrucaria; Albifimbria verrucaria): 20 µg/mL | MIC (Trichoderma viridae): 20 µg/mL | Algistatic concentration (Oscillatoria tenius): 0.7 ppm | Algistatic concentration (Anabaena cylindrica): 0.2 ppm | Algistatic concentration (Chlorella vulgaris): 2.0 ppm | MIC (Chaetomium globosum): 7 µg/mL

benzalkonium chloride [BAC]
Algistatic concentration (Stiegeocionim sp.): 0.7 ppm | Minimum inhibitory concentration (Aspergillus niger): 75 ppm | Minimum inhibitory concentration (Myrothecium verrucaria): 150 ppm | Minimum inhibitory concentration (Trichoderma viridae): 75 ppm | Algistatic concentration (Oscillatoria tenius): 0.6 ppm | Algistatic concentration (Anabaena cylindrica): 1.0 ppm | Algistatic concentration (Chlorella vulgaris): 1.0 ppm | Minimum inhibitory concentration (Chaetomium globosum): 7 ppm
